Reference: ChEMBL document CHEMBL1127911, “Synthesis of sulphur heterocycles as hepatoprotectants : part I” (1994)

Assays:
Assay type in all cases: functional
Rattus norvegicus [1] = assay: % protection measured by glutamate oxaloacetate transaminase level, against thioacetamide-induced hepatic damage in rats, at 6 mg/Kg peroral dose
Rattus norvegicus [2] = assay: % protection of glutamate pyruvate transaminase level, against thioacetamide-induced hepatic damage in rats, at 6 mg/Kg peroral dose
Rattus norvegicus [3] = assay: Tested for hepatoprotective activity against thioacetamide-induced hepatic damage in rat at 6 mg/kg, expressed as % protection afforded in ALP levels
Rattus norvegicus [4] = assay: Tested for hepatoprotective activity against thioacetamide-induced hepatic damage in rat at 6 mg/kg, expressed as % protection afforded in GIDH levels
Rattus norvegicus [5] = assay: Tested for hepatoprotective activity against thioacetamide-induced hepatic damage in rat at 6 mg/kg, expressed as % protection afforded in ACP levels

Row | Compound | Protection (Rattus norvegicus [1]) [%] | Protection (Rattus norvegicus [2]) [%] | Protection (Rattus norvegicus [3]) [%] | Protection (Rattus norvegicus [4]) [%] | Protection (Rattus norvegicus [5]) [%]
1 | CCN(CC)C(=S)SC(C(=O)c1ccc(Cl)cc1)=C1SCCS1 | 46 | 0 | 0 | 5 | 27
2 | CC(=O)C(C(C)=O)=C1SCCCS1 | 27 | 0 | 67 | 0 | 0
3 | SILYMARIN | 50.1 | 47.2 | 47 | 39.8 | 43.6
4 | CCN(CC)C(=S)SC(C(=O)c1ccc(C)cc1)=C1SCCS1 | 56 | 0 | 0 | 93 | 70
5 | CCOC(=O)C(C(=O)c1ccccc1)=C1SCCCS1 | 35 | 45 | 0 | 23 | 7
6 | COC(=O)C(C(C)=O)=C1SCCCS1 | 66 | 0 | 14 | 68 | 0
7 | N#CC(C(=O)c1ccc(Cl)cc1)=C1SCCCS1 | 63 | 0 | 0 | 0 | 0
8 | N#Cc1c(SCCS)n[nH]c1N | 0 | 0 | 0 | 0 | 9
9 | N#CC(C(=O)c1ccccc1)=C1SCCCS1 | 0 | 0 | 0 | 0 | 0
10 | N#CC(C(=O)c1ccc(Cl)cc1)=C1SCCS1 | 0 | 0 | 0 | 0 | 0
11 | COC(=O)C(C(C)=O)=C1SCCS1 | 7 | 0 | 0 | 0 | 9
12 | CCOC(=O)C(C(=O)c1ccccc1)=C1SCCS1 | 0 | 0 | 0 | 0 | 29
13 | O=C(C(C(=O)c1ccccc1)=C1SCCS1)c1ccccc1 | 0 | 0 | 34 | 0 | 8
14 | CC(=O)C(C(C)=O)=C1SCCS1 | 67 | 40 | 0 | 8 | 0
15 | CCOC(=O)C(C#N)=C1SCCCS1 | 84 | 59 | 76 | 0 | 0
16 | CCN(CC)C(=S)SC(C(=O)c1ccc(Br)cc1)=C1SCCCS1 | 38 | 0 | 0 | 0 | 20
17 | CCN(CC)C(=S)SC(C(=O)c1ccc(Cl)cc1)=C1SCCCS1 | 85 | 0 | 37 | 26 | 6
18 | CCOC(=O)C(C#N)=C1SCCS1 | 74 | 73 | 11 | 46 | 35
19 | N#Cc1c(-c2ccccc2)cc(S)sc1=N | 41 | 35 | 30 | 47 | 47
20 | CC(C)OC(=O)C(C(=O)OC(C)C)=C1SCCS1 [ISOPROTHIOLANE] | 92 | 77 | 0 | 0 | 0
21 | CCOC(=O)C(C(=O)OCC)=C1SCCS1 | 0 | 0 | 0 | 2 | 39
22 | O=C(c1ccc(Cl)cc1)c1sc(=S)sc1SCc1ccccc1 | 80 | 39 | 3 | 15 | 4
23 | N#CC(C(=O)c1ccccc1)=C1SCCS1 | 0 | 0 | 31 | 0 | 0
